According to article PMC7211837, “Design, synthesis, molecular modelling and in vitro screening of monoamine oxidase inhibitory activities of novel quinazolyl hydrazine derivatives” (Royal Society Open Science, 2020):
“And” between values parts separate entries of the source, which are not always exact repeats. Identical values can stand only once. “Also recorded” adds a separate entry of the source. Marks after values point to notes of the source that are not given here.

Key:
[1] = molecular target: T1, membrane-bound human MAO-A (Homo sapiens, UniProt P21397); experiment: MAO-A inhibition, H2O2/horseradish peroxidase coupled fluorescence assay with tyramine; format: biochemical; settings: for inhibition at 10 µM: read-out: % inhibition at 10 μM hMAO-A; for IC50 (μM) hMAO-A / IC50: tyramine at 2 × KM, seven concentrations 0.01–300 µM, ± s.d., two independent experiments; for mechanism of inhibition of MAO-A: 30 min preincubation, dilution ×100, increasing substrate concentration; for selectivity MAO-A versus MAO-B: from IC50 values on MAO-A and MAO-B; for inhibition of MAO-A compared with MAO-B in the screen: screen at 10 µM; for IC50: read-out: IC50 (μM) hMAO-A
T1 sequence (P21397 1-527): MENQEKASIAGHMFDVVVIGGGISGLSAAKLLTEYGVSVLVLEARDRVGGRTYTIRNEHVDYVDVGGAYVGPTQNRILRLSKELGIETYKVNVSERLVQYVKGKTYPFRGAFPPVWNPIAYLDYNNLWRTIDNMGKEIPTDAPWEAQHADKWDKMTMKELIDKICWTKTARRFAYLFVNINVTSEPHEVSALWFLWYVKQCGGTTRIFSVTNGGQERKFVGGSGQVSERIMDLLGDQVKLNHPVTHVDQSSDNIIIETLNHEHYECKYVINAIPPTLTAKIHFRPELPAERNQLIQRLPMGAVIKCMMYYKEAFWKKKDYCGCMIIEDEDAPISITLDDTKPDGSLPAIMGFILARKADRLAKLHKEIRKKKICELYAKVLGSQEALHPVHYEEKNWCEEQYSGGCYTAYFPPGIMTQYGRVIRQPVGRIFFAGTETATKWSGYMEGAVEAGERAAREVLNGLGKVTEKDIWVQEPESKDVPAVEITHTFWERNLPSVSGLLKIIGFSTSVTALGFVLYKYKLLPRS
Method: (§1) Incomplete inhibition of activity could arise either from indirect effects on these enzymes or from the compounds acting as substrates at the highest concentrations.
(§2) The activity of MAO was determined using the coupled assay method of [41, 42] in which the product, H2O2, acts with horseradish peroxidase to convert 10-acetyl-3,7-dihydroxyphenoxazine to the fluorescent resorufin. […] The data were analysed using the equation for a three-parameter curve in Graphpad PRISM v. 4, and the % inhibition calculated from the top and bottom of the resulting curve.

[2] = molecular target: T2, membrane-bound human MAO-B (Homo sapiens, UniProt P27338); experiment: MAO-B inhibition, H2O2/horseradish peroxidase coupled fluorescence assay with tyramine; format: biochemical; settings: for inhibition at 10 µM: read-out: % inhibition at 10 μM hMAO-B, 10 μM compound, tyramine 0.32 mM (2 × KM), average of two independent experiments; for IC50 / IC50 (μM) hMAO-B: tyramine at 2 × KM, seven concentrations 0.01–300 µM, ± s.d., two independent experiments; for IC50: read-out: IC50 (μM) hMAO-B; for maximum inhibition (%) hMAO-B: from dose–response curve, in parentheses after IC50, given if less than 95%
T2 sequence (P27338 1-520): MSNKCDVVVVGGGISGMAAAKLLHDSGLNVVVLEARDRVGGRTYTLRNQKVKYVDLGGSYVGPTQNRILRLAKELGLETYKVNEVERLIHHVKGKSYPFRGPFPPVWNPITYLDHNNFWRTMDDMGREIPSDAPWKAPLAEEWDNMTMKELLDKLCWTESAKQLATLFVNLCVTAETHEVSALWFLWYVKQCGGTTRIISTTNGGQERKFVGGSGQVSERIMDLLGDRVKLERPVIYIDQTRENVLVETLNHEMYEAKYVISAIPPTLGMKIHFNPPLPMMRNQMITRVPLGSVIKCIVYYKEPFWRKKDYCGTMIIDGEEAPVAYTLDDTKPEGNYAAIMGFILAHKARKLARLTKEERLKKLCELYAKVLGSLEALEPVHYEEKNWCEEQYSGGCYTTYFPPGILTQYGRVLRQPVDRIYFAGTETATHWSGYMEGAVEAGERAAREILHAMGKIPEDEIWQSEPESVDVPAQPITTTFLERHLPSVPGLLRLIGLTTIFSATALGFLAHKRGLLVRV
Method: as §1, §2

MAO-A = molecular target: T3, MAO-A (Homo sapiens, UniProt P21397); experiment: Oxidation of compound by MAO-A in the standard coupled assay in the absence of tyramine; format: biochemical
T3 sequence (P21397 1-527): T1 sequence (P21397 1-527)
Method: Compound 6 in the screening assay with 10 µM inhibitor gave an increased rate of appearance of fluorescence indicating faster production of the product H2O2 (not the slower rate observed with other compounds that inhibit MAO activity).
Figure 3. Oxidation of 6 (squares) but not 12d (triangles) by MAO-A. The concentration of compound was varied in the standard assay coupled to the production of H2O2 but in the absence of the substrate tyramine.
The activity of MAO was determined using the coupled assay method of [41, 42] in which the product, H2O2, acts with horseradish peroxidase to convert 10-acetyl-3,7-dihydroxyphenoxazine to the fluorescent resorufin. […] For compounds that gave more than 30% inhibition, the IC50 was determined using seven concentrations of each compound (0.01–300 μM) with substrate at 2 × KM. […] The data were analysed using the equation for a three-parameter curve in Graphpad PRISM v. 4, and the % inhibition calculated from the top and bottom of the resulting curve.

[3] = 10 μM compound, tyramine 0.8 mM (2 × KM), average of two independent experiments

| SMILES | inhibition at 10 µM [1, 3] [%] | inhibition at 10 µM [2] [%] | melting point [°C] | % inhibition at 10 μM hMAO-A [1, 3] | IC50 (μM) hMAO-A [1] | IC50 [2] | Vmax for oxidation by MAO-A as % of the Vmax for tyramine (MAO-A; same conditions, tyramine run in parallel) [%] | mechanism of inhibition of MAO-A [1] | selectivity MAO-A versus MAO-B [1] | IC50 [1] | maximum inhibition (%) hMAO-B [2] | IC50 (μM) hMAO-B [2] | maximum inhibition (%) hMAO-A ([1]; from dose–response curve, in parentheses after IC50, given if less than 95%) [%] | mechanism of inhibition of MAO-B ([2]; 30 min preincubation, dilution ×100, increasing substrate concentration) | H2O2 production / oxidation by MAO-A in the absence of the normal substrate (MAO-A; absence of tyramine) | inhibition of MAO-A compared with MAO-B in the screen [1] |
| --- | --- | --- | --- | --- | --- | --- | --- | --- | --- | --- | --- | --- | --- | --- | --- | --- |
| COC(=O)CN1C(=O)c2cc(Cl)ccc2NC1c1ccccc1OC (stereo not drawn) [3d, Methyl 2-(6-chloro-2-(2-methoxyphenyl)-4-oxo–1,2-dihydroquinazolin-3(4H)-yl)acetate] | 0 | 27 | 152 to 154 | – | – | – | – | – | – | – | – | – | – | – | – | – |
| COc1cc(/C=N/NC(=O)CNC(=O)c2cc(Cl)ccc2/N=C/c2ccccc2)ccc1O [compound 6, 2-(((E)-benzylidene)amino)-5-chloro-N-(2-(2-((E)-4-hydroxy-3-methoxybenzylidene)hydrazinyl)-2-oxoethyl)benzamide] | – | 12 | 257 to 259 | none | (rate increases)^c | 9 ± 2.3 µM | 77 | – | – | – | – | – | – | – | gave a measurable rate of H2O2 production | – |
| NNC(=O)CN1C(=O)c2cc(Cl)ccc2NC1c1ccccc1 (stereo not drawn) [4b, 2-(6-Chloro-4-oxo-2-phenyl-1,2-dihydroquinazolin-3(4H)-yl)acetohydrazide] | 6 | 31 | 184 to 185 | – | – | – | – | – | – | – | – | – | – | – | – | – |
| COc1ccc(C2Nc3ccc(Cl)cc3C(=O)N2CC(=O)NN)cc1 (stereo not drawn) [4c, 2-(6-Chloro-2-(4-methoxyphenyl)-4-oxo-1,2-dihydroquiazolin-3(4H)-yl)acetohydrazide] | 0 | 27 | 159 to 160 | – | – | – | – | – | – | – | – | – | – | – | – | – |
| COC(=O)CN1C(=O)c2cc(Cl)ccc2NC1c1ccccc1 (stereo not drawn) [3b, Methyl-2-(6-chloro-4-oxo-2-phenyl-1,2-dihydroquinazolin-3(4H)-yl)acetate] | 10 | 34 | 162 to 163 | – | – | – | – | – | – | – | – | – | – | – | – | – |
| COc1ccccc1C1Nc2ccc(Cl)cc2C(=O)N1CC(=O)NN (stereo not drawn) [4d, 2-(6-Chloro-2-(2-methoxyphenyl)-4-oxo-1,2-dihydroquinazolin-3(4H)-yl)acetohydrazide] | 0 | 28 | 149 to 151 | – | – | – | – | – | – | – | – | – | – | – | – | – |

Second part, led by results:

| inhibition at 10 µM [1, 3] [%] | inhibition at 10 µM [2] [%] | melting point [°C] | % inhibition at 10 μM hMAO-A [1, 3] | IC50 (μM) hMAO-A [1] | IC50 [2] | Vmax for oxidation by MAO-A as % of the Vmax for tyramine (MAO-A; same conditions, tyramine run in parallel) [%] | mechanism of inhibition of MAO-A [1] | selectivity MAO-A versus MAO-B [1] | IC50 [1] | maximum inhibition (%) hMAO-B [2] | IC50 (μM) hMAO-B [2] | maximum inhibition (%) hMAO-A ([1]; from dose–response curve, in parentheses after IC50, given if less than 95%) [%] | mechanism of inhibition of MAO-B ([2]; 30 min preincubation, dilution ×100, increasing substrate concentration) | SMILES | H2O2 production / oxidation by MAO-A in the absence of the normal substrate (MAO-A; absence of tyramine) | inhibition of MAO-A compared with MAO-B in the screen [1] |
| --- | --- | --- | --- | --- | --- | --- | --- | --- | --- | --- | --- | --- | --- | --- | --- | --- |
| 10 | 19 | 266 to 270 | – | – | – | – | – | – | – | – | – | – | – | O=C(CN1C(=O)c2cc(Cl)ccc2NC1c1ccccc1)NN=Cc1ccccc1 (stereo not drawn) [5e, N'-Benzylidene-2-(6-chloro-4-oxo-2-phenyl-1,4-dihydroquinazolin-3(2H)-yl)acetohydrazide] | – | – |
| 70 | 72 | 240 to 242 | – | micromolar potency | 0.44 ± 0.1 µM | – | competitive inhibition | non-selective | 0.31 ± 0.11 µM | full inhibition | micromolar affinity | – | – | COc1cc(C=NNC(=O)CN2C(=O)c3cc(Cl)ccc3NC2c2ccccc2)ccc1O (stereo not drawn) [5h, 2-(6-Chloro-4-oxo-2-phenyl-1,4-dihydroquinazolin-3(2H)-yl)-N'-(4-hydroxy-3-methoxybenzylidene)-acetohydrazide] | – | equal inhibition of MAO-A and MAO-B; also recorded: equally inhibited |
| 71 | 70 | 252 to 255 | – | micromolar potency | 0.75 ± 0.18 µM | – | – | threefold selective for MAO-A | 0.27 ± 0.06 µM | full inhibition | micromolar affinity | – | – | COc1cc(C=NNC(=O)CN2C(=O)c3ccccc3NC2c2ccccc2)ccc1O (stereo not drawn) [5d, N'-(4-Hydroxy-3-methoxybenzylidene)-2-(4-oxo-2-phenyl-1,2-dihydroquinazolin-3(4H)yl)acetohydrazide] | – | equal inhibition of MAO-A and MAO-B; also recorded: equally inhibited |
| 27 | 52 | 258 to 260 | – | – | 3.62 ± 0.69 µM | – | competitive inhibition | – | 1.41 ± 0.47 µM | full inhibition | micromolar affinity | 32 | competitive inhibition | COc1cc(C=NNC(=O)Cn2c(C)nc3ccccc3c2=O)ccc1O [12d, N'-(4-Hydroxy-3-methoxybenzylidene)-2-(2-methyl-4-oxoquinazolin-3(4H)-yl)acetohydrazide] | – | – |
| 6 | 26 | 242 to 245 | – | – | – | – | – | – | – | – | – | – | – | Cc1nc2ccccc2c(=O)n1CC(=O)NN=Cc1ccccc1 [12a, N'-Benzylidene-2-(2-methyl-4-oxoquinazolin-3(4H)-yl)acetohydrazide] | – | – |
| 22 | 36 | 236 to 240 | – | micromolar potency | 11 ± 4 µM | – | – | A-selective | 4.34 ± 1.31 µM | full inhibition | micromolar affinity | – | – | O=C(CN1C(=O)c2cc(Cl)ccc2NC1c1ccccc1)NN=Cc1ccc(O)cc1 (stereo not drawn) [5g, 2-(6-Chloro-4-oxo-2-phenyl-1,4-dihydroquinazolin-3(2H)-yl)-N'-(4-hydroxybenzylidene)acetohydrazide] | – | – |
| 6 | 36 | 230 to 232 | – | none | 83 µM | – | – | – | – | – | – | – | – | O=C(CN1C(=O)c2ccccc2NC1c1ccccc1)NN=Cc1ccc(O)cc1 (stereo not drawn) [5b, N'-(4-Hydroxybenzylidene)-2-(4-oxo-2-phenyl-1,2-dihydroquinazolin-3(4H)-yl)acetohydrazide] | – | – |
| 19 | 55 | 223 to 225 | – | micromolar potency | < 10 µM and 10 µM | – | – | – | 4.4 µM and 6 µM and 6.2 µM | full inhibition | micromolar affinity | – | – | O=C(CN1C(=O)c2ccccc2NC1c1ccccc1)NN=Cc1ccccc1 (stereo not drawn) [5a, N'-Benzylidene-2-(4-oxo-2-phenyl-1,2-dihydroquinazolin-3(4H)-yl)acetohydrazide] | – | – |
